“Also recorded” adds a separate entry of the source.
Molecular target: T1, EcoRI (Escherichia coli, UniProt P00642)
T1 construct: The first M is removed after translation in this protein; purchased New England Biolabs
Test: Peptide inhibitor assay (PIA): EcoRI digestion of pCRII-TOPO-OR23 plasmid, fluorescence intensity of the excised OR23 band on agarose gel
Assay type: biochemical
Conditions: for significance of inhibition of EcoRI activity versus no peptide / level of inhibitory effect on EcoRI (in words) / relative fluorescence intensity of excised OR23 fragment / inhibitory effect compared with the original peptide (in words): 3 h; for significance of inhibition of EcoRI activity versus no peptide: EcoRI:peptide 1:500, Dunnett's test versus no peptide; for significance of inhibition of EcoRI activity versus no peptide / level of inhibitory effect on EcoRI (in words) / inhibitory effect compared with the original peptide (in words) / inhibitory effect, fluorescence intensity versus incubation time (in words) / concentration dependence of the inhibitory effect: n = 3; for level of inhibitory effect on EcoRI (in words): EcoRI:peptide 1:500, relative fluorescence intensity; for relative fluorescence intensity of excised OR23 fragment: relative to no peptide, EcoRI:peptide 1:500 molar ratio, 37 °C, 0.015 mM Mg2+, mean of n = 3; for inhibitory effect compared with the original peptide (in words): EcoRI:peptide 1:500, randomized peptides by Student's t-test versus each endogenous BP; for inhibitory effect, fluorescence intensity versus incubation time (in words): time course until 5 h, EcoRI:peptide 1:500, compared with no peptide; for concentration dependence of the inhibitory effect: ×5 to ×500 molar equivalence to EcoRI, fixed time point 3 h
Protocol: Peptide synthesis was performed by GenScript Japan (Tokyo, Japan). All peptides were confirmed to be more than 75% pure via high-performance liquid chromatography (HPLC) and to have theoretical molecular weights via mass spectrometry (MS). The peptides were dissolved in DMSO (dimethyl sulfoxide) and were prepared at 5.59 × 10^−9 mol/μL (5.59 mM). When 1.0 μL of this peptide mixture was mixed in a tube for the inhibition of EcoRI catalytic activity, the molar ratio of EcoRI to peptide was 1:500. This concentration in molar equivalence was used throughout this study unless otherwise noted.
Purified and concentrated EcoRI (20,000 U/mL, approximately 338 μg/mL, 1.12 × 10^−[…]) was obtained from New England Biolabs (Ipswich, MA, USA). To quantify and visualize the inhibitory effects of the peptides, the enzymatic reaction conditions were set so that at least three hours of incubation were required to completely digest the substrate plasmid DNA with EcoRI. To do so, we used a low Mg^2+ concentration (0.015 mM) in the reaction mixture in contrast to the optimum concentration of Mg^2+ for EcoRI (10 mM).
All master solutions and samples were prepared on ice. A single reaction tube contained the following common ingredients: autoclaved DNase-free RNase-free deionized H2O (12.5 μL) (Nippon Gene), 10× NE Buffer Mg^2+-free (2.0 μL), pCRII-TOPO-OR23 plasmid DNA (2.0 μL of 40 ng/μL solution), MgCl2 (1.5 μL of 0.20 mM solution), and EcoRI (1.0 μL). A master solution containing these ingredients without DMSO or a peptide was first prepared for the number of sample tubes. The master solution was aliquoted into 1.5 mL spin tubes (19.0 μL per tube). Then, 1.0 μL of DMSO or a peptide sample was added, and the mixture was incubated at 37 °C. A negative control with DMSO but without a peptide (“no peptide” control) was run in every assay. When the digestion efficiency was compared, another negative control with autoclaved DNase-free RNase-free H2O without EcoRI was prepared. After the reaction, the samples were quickly cooled on ice for ten minutes and then stored at −80 °C until agarose gel electrophoresis. The above protocol was conducted for all peptides (including BP19.5, BP19.5N, and BP19.5C) used in the present study unless otherwise noted.
To quantify EcoRI activity after incubation of a reaction mixture, digested pCRII-TOPO-OR23 plasmid DNA was examined via agarose gel electrophoresis. We first prepared a 25 mL solution of 1.0% agarose (Nippon Gene) in TAE (Tris-acetate-EDTA) buffer (Promega, Madison, WI, USA) to produce an agarose gel. An ethidium bromide solution (0.5 μL of 10 mg/mL) (Promega) was added before gelation. After incubation with EcoRI, the fluorescence intensity of the band of the excised OR23 fragment was measured via an ImageQuant LAS4000 (GE Healthcare Japan, Tokyo, Japan) with the following conditions: “Exposure Type”: Precision; “Exposure Time”: Manual 1/8 sec; “Sensitivity/Resolution”: Standard; and “Fluorescent Method”: Epi illumination; EtBr; UV (Trans UV) light; 6-5DF50 Filter; and F2.8 Iris.
For statistical analyses, Student’s t-test (unpaired and bi-sided), Dunnett’s test, and Pearson correlation analysis were performed via Microsoft Excel (Office 365) and JSTAT (Yokohama, Japan). The Dunnett’s test was performed for each experimental group that was examined simultaneously in the laboratory, in comparison to the “no peptide” control group that was examined simultaneously. The repeated measure mode of the Dunnett’s test was used on the assumption that there was no interaction between samples.

T1 sequence (P00642 2-277): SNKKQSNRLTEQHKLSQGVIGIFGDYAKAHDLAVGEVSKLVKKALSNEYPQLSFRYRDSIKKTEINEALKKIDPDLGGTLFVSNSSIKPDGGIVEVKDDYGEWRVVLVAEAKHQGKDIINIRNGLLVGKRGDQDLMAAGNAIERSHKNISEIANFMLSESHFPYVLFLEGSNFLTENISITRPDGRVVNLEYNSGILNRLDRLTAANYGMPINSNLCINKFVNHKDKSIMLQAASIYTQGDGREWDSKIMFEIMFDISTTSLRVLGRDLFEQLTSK

In the case of VIGIFGDYAKAHDL [BP3], the “significance of inhibition of EcoRI activity versus no peptide” value is reported as “significantly inhibitory”, the “level of inhibitory effect on EcoRI (in words)” value (“level of inhibitory effect” for short) is reported as “highly inhibitory; also recorded: most effective” and the “relative fluorescence intensity of excised OR23 fragment” value (from here on “relative fluorescence intensity”) is reported as “less than 0.3”.

In the case of IDPDLG [BP7N], the “level of inhibitory effect” value is reported as “noninhibitory”.

In the case of SHKNIS [BP14N], the “level of inhibitory effect” value is reported as “noninhibitory”.

For AAGNAI [BP13M], the “level of inhibitory effect” value was “noninhibitory”.

With NGLLVG [BP12N] the “inhibitory effect compared with the original peptide (in words)” value was “more inhibitory than the original”.

For NAIERSHKNIS [BP13.5], the “level of inhibitory effect” value was “not very inhibitory”.

RNGLLVGKRGDQD [BP12] was tested, and the “significance of inhibition of EcoRI activity versus no peptide” value was “significantly inhibited EcoRI activity”.

IKKTEINEALKKID [BP6] was tested, and the “significance of inhibition of EcoRI activity versus no peptide” value was “significantly inhibited EcoRI activity” and the “level of inhibitory effect” value was “especially notable”.

EIANFM [BP14C] was tested, and the “inhibitory effect compared with the original peptide (in words)” value was “as inhibitory as the original BP14”.

With EWRVVL [BP10N] the “level of inhibitory effect” value was “noninhibitory”.

For TRPDGRVVNLEY [BP17], the “level of inhibitory effect” value was “not very inhibitory”.

For EWRVVLVAEAKHQG [BP10], the “level of inhibitory effect” value was “not very inhibitory”.

In the case of IKKTEI [BP6N], the “inhibitory effect compared with the original peptide (in words)” value is reported as “as inhibitory as the original BP6”.

With EALDIAMGRNSA [BP13R1] the “inhibitory effect compared with the original peptide (in words)” value was “significantly more inhibitory”.

In the case of DLMAAGNAIERS [BP13], the “level of inhibitory effect” value is reported as “not very inhibitory”.

For LDRLTAANYGM [BP18.5], the “level of inhibitory effect” value was “noninhibitory”.

In the case of GIVEVK [BP9M], the “inhibitory effect compared with the original peptide (in words)” value is reported as “more inhibitory than the original”.

In the case of AVGEVSKLVKKALS [BP4], the “significance of inhibition of EcoRI activity versus no peptide” value is reported as “significantly inhibitory”.

In the case of VGLILSTGDFDP [BP7R1], the “inhibitory effect compared with the original peptide (in words)” value is reported as “as inhibitory as the original peptides”.

With SSIKPDGGIVE [BP8.5] the “level of inhibitory effect” value was “not very inhibitory”.

For NISEIA [BP14M], the “level of inhibitory effect” value was “noninhibitory”.

For VNHKDKSIMLQA [BP20.5], the “level of inhibitory effect” value was “did not show high inhibition”.

In the case of STTSLRVLGRDLFE [BP24], the “level of inhibitory effect” value is reported as “did not work well”.

VKDDYG [BP9C] was tested, and the “level of inhibitory effect” value was “noninhibitory”.

For EAKHQGKDIIN [BP10.5], the “level of inhibitory effect” value was “not very inhibitory”.

With GREWDSKIMFEIMF [BP22] the “significance of inhibition of EcoRI activity versus no peptide” value was “significantly inhibited EcoRI activity”, the “level of inhibitory effect” value was “especially notable” and the “inhibitory effect, fluorescence intensity versus incubation time (in words)” value was “relatively high inhibitory effects”. For the same substance, the “concentration dependence of the inhibitory effect” value was “concentration dependent”.

For YVLFLE [BP15C], the “level of inhibitory effect” value was “most effective”, the “inhibitory effect compared with the original peptide (in words)” value was “more inhibitory than the original BP15” and the “relative fluorescence intensity” value was “less than 0.3”.

In the case of EGSNFLTENISI [BP16], the “level of inhibitory effect” value is reported as “highly inhibitory; also recorded: most effective” and the “relative fluorescence intensity” value is reported as “less than 0.3”.

For AGRKQEVHAVWVEL [BP10R2], the “inhibitory effect compared with the original peptide (in words)” value was “as inhibitory as the original peptides”.

In the case of LGRDLFEQLTSK [BP25], the “level of inhibitory effect” value is reported as “especially notable; also recorded: most inhibitory; also recorded: most effective” and the “relative fluorescence intensity” value is reported as “less than 0.3”.

NSGILNRLDRLTA [BP18] was tested, and the “level of inhibitory effect” value was “especially notable; also recorded: most effective” and the “relative fluorescence intensity” value was “less than 0.3”.

For SHKNISEIANFM [BP14], the “significance of inhibition of EcoRI activity versus no peptide” value was “significantly inhibited EcoRI activity”, the “level of inhibitory effect” value was “especially notable; also recorded: moderate inhibitory effect” and the “inhibitory effect, fluorescence intensity versus incubation time (in words)” value was “relatively high inhibitory effects”. The “concentration dependence of the inhibitory effect” value was “concentration dependent”.

For LSQGVIGIFGDY [BP2.5], the “level of inhibitory effect” value was “notable” and the “relative fluorescence intensity” value was “less than 0.3”.

In the case of DGLTPFSDVLGI [BP7R2], the “inhibitory effect compared with the original peptide (in words)” value is reported as “significantly less inhibitory”.

In the case of FVSNSSIKPDGG [BP8], the “level of inhibitory effect” value is reported as “noninhibitory” and the “inhibitory effect, fluorescence intensity versus incubation time (in words)” value is reported as “relatively low inhibitory effects”.

For VEGQELAVKAHRWV [BP10R1], the “inhibitory effect compared with the original peptide (in words)” value was “significantly more inhibitory”.

For LAMRGASIADEN [BP13R2], the “inhibitory effect compared with the original peptide (in words)” value was “significantly less inhibitory”.

For NEYPQLAFRYRDS [BP5], the “significance of inhibition of EcoRI activity versus no peptide” value was “significantly inhibitory”, the “level of inhibitory effect” value was “highly inhibitory; also recorded: most effective” and the “relative fluorescence intensity” value was “less than 0.3”.

For SNKKQSNRLTEQHK [BP1], the “significance of inhibition of EcoRI activity versus no peptide” value was “significantly inhibitory” and the “level of inhibitory effect” value was “reasonably inhibitory”.

In the case of KRGDQDLMAAG [BP12.5], the “level of inhibitory effect” value is reported as “not very inhibitory”.

In the case of EQHKLSQGVIGI [BP2], the “significance of inhibition of EcoRI activity versus no peptide” value is reported as “significantly inhibitory”, the “level of inhibitory effect” value is reported as “highly inhibitory; also recorded: most effective” and the “relative fluorescence intensity” value is reported as “less than 0.3”.

KPDGGIVEVKDDYG [BP9] was tested, and the “level of inhibitory effect” value was “not very inhibitory”.

For VVNLEYNSGILN [BP17.5], the “level of inhibitory effect” value was “not very inhibitory”.

With FRYRDSIKKTEI [BP5.5] the “level of inhibitory effect” value was “least inhibitory; also recorded: noninhibitory”.

From publication PMC11755562, “Peptide Inhibitor Assay for Allocating Functionally Important Accessible Sites Throughout a Protein Chain: Restriction Endonuclease EcoRI as a Model Protein System” (BioTech, 2024)
